{"source": "PubChem BioAssay AID180", "about": "(DTP/NCI, 2004)", "test_system": "BDF1 mice, Adenocarcinoma 755 s.c., tumor weight T/C", "assay": "NCI In Vivo Anticancer Drug Screen. Data for tumor model Adenocarcinoma 755 (subcutaneous) in B6D2F1 (BDF1) mice", "conditions": "endpoint: mean tumor weight, schedule: Q01DX011 (ip), higher = larger tumour", "procedure,_shortened": "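Compound activity was tested in mice carrying transplanted tumors. Survival or tumor size was measured, and each value is the treated-group measurement divided by that of the vehicle-treated control group (T/C).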", "key": {"[1]": {"conditions": "dose: 12.5 mg/kg/injection, vehicle: saline"}, "[2]": {"conditions": "dose: 25.0 mg/kg/injection, vehicle: methylcellulose (MC)"}, "[3]": {"conditions": "dose: 25.0 mg/kg/injection, vehicle: saline"}, "[4]": {"conditions": "dose: 50.0 mg/kg/injection, vehicle: methylcellulose (MC)"}, "[5]": {"conditions": "dose: 125.0 mg/kg/injection, vehicle: methylcellulose (MC)"}, "[6]": {"conditions": "dose: 20.0 mg/kg/injection, vehicle: methylcellulose (MC)"}, "[7]": {"conditions": "dose: 65.0 mg/kg/injection, vehicle: methylcellulose (MC)"}, "[8]": {"conditions": "dose: 12.5 mg/kg/injection, vehicle: methylcellulose (MC)"}}, "note": "Values joined by “and” are separate entries in the source; they are usually repeats but may differ in a detail not shown here. Identical values can stand only once."}
{"compound": "On1cnc(=S)c2[nH]cnc21", "values": [{"measurement": "T/C", "setting": "dose: 125.0 mg/kg/injection, vehicle: carboxymethylcellulose (CMC)", "value": "5 % of control"}]}
{"compound": "CCCCOC(=O)C1(N)CCCC1", "values": [{"measurement": "T/C", "setting": "dose: 3.12 mg/kg/injection, vehicle: carboxymethylcellulose (CMC)", "value": "75 % of control"}, {"measurement": "T/C", "setting": "dose: 6.25 mg/kg/injection, vehicle: carboxymethylcellulose (CMC)", "value": "80 % of control"}, {"measurement": "T/C", "setting": "dose: 12.5 mg/kg/injection, vehicle: carboxymethylcellulose (CMC)", "value": "66 % of control"}, {"measurement": "T/C", "setting": "dose: 25.0 mg/kg/injection, vehicle: carboxymethylcellulose (CMC)", "value": "29 % of control and 35 % of control"}, {"measurement": "T/C", "setting": "dose: 50.0 mg/kg/injection, vehicle: carboxymethylcellulose (CMC)", "value": "12 % of control"}]}
{"compound": "Cc1ncc(CO)c(C)c1O", "values": [{"measurement": "T/C", "setting": "[1]", "value": "48 % of control"}, {"measurement": "T/C", "setting": "dose: 22.78 mg/kg/injection, vehicle: carboxymethylcellulose (CMC)", "value": "81 % of control"}, {"measurement": "T/C", "setting": "[2]", "value": "98 % of control"}, {"measurement": "T/C", "setting": "[3]", "value": "45 % of control"}, {"measurement": "T/C", "setting": "dose: 45.57 mg/kg/injection, vehicle: carboxymethylcellulose (CMC)", "value": "70 % of control"}, {"measurement": "T/C", "setting": "[4]", "value": "75 % of control"}, {"measurement": "T/C", "setting": "dose: 50.0 mg/kg/injection, vehicle: saline", "value": "54 % of control"}, {"measurement": "T/C", "setting": "dose: 59.07 mg/kg/injection, vehicle: carboxymethylcellulose (CMC)", "value": "107 % of control"}, {"measurement": "T/C", "setting": "dose: 75.0 mg/kg/injection, vehicle: saline", "value": "50 % of control"}, {"measurement": "T/C", "setting": "dose: 91.15 mg/kg/injection, vehicle: carboxymethylcellulose (CMC)", "value": "76 % of control"}, {"measurement": "T/C", "setting": "dose: 100.0 mg/kg/injection, vehicle: methylcellulose (MC)", "value": "71 % of control"}, {"measurement": "T/C", "setting": "dose: 100.0 mg/kg/injection, vehicle: saline", "value": "22 % of control"}, {"measurement": "T/C", "setting": "dose: 118.15 mg/kg/injection, vehicle: carboxymethylcellulose (CMC)", "value": "108 % of control"}, {"measurement": "T/C", "setting": "[5]", "value": "48 % of control"}, {"measurement": "T/C", "setting": "dose: 150.0 mg/kg/injection, vehicle: saline", "value": "30 % of control"}, {"measurement": "T/C", "setting": "dose: 182.3 mg/kg/injection, vehicle: carboxymethylcellulose (CMC)", "value": "72 % of control"}, {"measurement": "T/C", "setting": "dose: 200.0 mg/kg/injection, vehicle: methylcellulose (MC)", "value": "70 % of control"}, {"measurement": "T/C", "setting": "dose: 236.3 mg/kg/injection, vehicle: carboxymethylcellulose (CMC)", "value": "55 % of control"}]}
{"compound": "CC(C)Cn1cnc2c(SCc3ccccn3)nc(N)nc21", "values": [{"measurement": "T/C", "setting": "[6]", "value": "5 % of control"}, {"measurement": "T/C", "setting": "[7]", "value": "1 % of control"}]}
{"compound": "Clc1ccc(CSc2ncnc3c2ncn3C2CCCCO2)cc1", "note": "(centres undefined)", "values": [{"measurement": "T/C", "setting": "[6]", "value": "84 % of control"}, {"measurement": "T/C", "setting": "[7]", "value": "31 % of control"}]}
{"compound": "CC(C)n1cc2c(N)ncnc2n1", "values": [{"measurement": "T/C", "setting": "[8]", "value": "55 % of control"}, {"measurement": "T/C", "setting": "[1]", "value": "74 % of control"}, {"measurement": "T/C", "setting": "[2]", "value": "18 % of control"}, {"measurement": "T/C", "setting": "[3]", "value": "14 % of control"}]}
{"compound": "N#CCCNC(=O)Nc1ccccc1", "values": [{"measurement": "T/C", "setting": "dose: 15.0 mg/kg/injection, vehicle: methylcellulose (MC)", "value": "63 % of control"}, {"measurement": "T/C", "setting": "dose: 31.0 mg/kg/injection, vehicle: methylcellulose (MC)", "value": "74 % of control"}, {"measurement": "T/C", "setting": "dose: 62.0 mg/kg/injection, vehicle: methylcellulose (MC)", "value": "58 % of control"}, {"measurement": "T/C", "setting": "[5]", "value": "101 % of control"}, {"measurement": "T/C", "setting": "dose: 250.0 mg/kg/injection, vehicle: methylcellulose (MC)", "value": "93 % of control"}]}
{"compound": "COC12C(COC(N)=O)C3=C(C(=O)C(C)=C(N)C3=O)N1CC1C2N1C", "note": "(centres undefined)", "values": [{"measurement": "T/C", "setting": "dose: 1.25 mg/kg/injection, vehicle: carboxymethylcellulose (CMC)", "value": "62 % of control"}, {"measurement": "T/C", "setting": "dose: 2.5 mg/kg/injection, vehicle: carboxymethylcellulose (CMC)", "value": "52 % of control"}, {"measurement": "T/C", "setting": "dose: 5.0 mg/kg/injection, vehicle: carboxymethylcellulose (CMC)", "value": "27 % of control"}, {"measurement": "T/C", "setting": "dose: 10.0 mg/kg/injection, vehicle: carboxymethylcellulose (CMC)", "value": "3 % of control and 7 % of control"}]}
{"compound": "Nc1nc(=S)c2ncn(C3CCCCC3)c2[nH]1", "values": [{"measurement": "T/C", "setting": "[8]", "value": "81 % of control"}, {"measurement": "T/C", "setting": "[2]", "value": "86 % of control"}, {"measurement": "T/C", "setting": "[4]", "value": "50 % of control"}]}
